Data on 1 compound can be found in ChEMBL document CHEMBL4422616, “The P-glycoprotein inhibitor diltiazem-like 8-(4-chlorophenyl)-5-methyl-8-[(2Z)-pent-2-en-1-yloxy]-8H-[1,2,4]oxadiazolo[3,4-c][1,4]thiazin-3-one inhibits esterase activity and H3 histone acetylation” (Eur J Med Chem, 2019).

For data set [1], the system named is HepG2. The experiment in a line: Cytotoxicity against human HepG2 cells assessed as reduction in cell viability up to 100 uM after 48 hrs by MTT assay. To be noted: hepg2, 48 h. The class given is cell-based. Background: Formazan colour is commonly taken as a measure of viable cells.
Data set [2] deals with HEK293. The experiment in a line: Cytotoxicity against HEK293 cells assessed as reduction in cell viability up to 100 uM after 48 hrs by MTT assay. It counts as cell-based. The note with it: human, hek293, 48 h.
The test system of data set [3] is HepG2. The experiment in a line: Cytotoxicity against human HepG2 cells assessed as morphological alteration up to 100 uM after 48 hrs by MTT assay. The class given is cell-based. The note with it: hepg2, 48 h.
Data set [4] has as its system HEK293. The experiment in a line: Cytotoxicity against HEK293 cells assessed as morphological alteration up to 100 uM after 48 hrs by MTT assay. The note with it: human, hek293, 48 h. It counts as cell-based.
Data set [5] relates to HepG2. The experiment in a line: Cytotoxicity against human HepG2 cells assessed as reduction in cell viability at 500 uM after 24 to 48 hrs by MTT assay relative to control. The class given is cell-based. To be noted: hepg2, 500 µM.
Data set [6] deals with HEK293. The experiment in a line: Cytotoxicity against HEK293 cells assessed as reduction in cell viability at 500 uM after 24 to 48 hrs by MTT assay relative to control. It counts as cell-based. The note with it: human, hek293, 500 µM.
In data set [7] the test system is HEK293. The experiment in a line: Inhibition of esterase in HEK293 cells at 100 uM after 1 hr by calcein-AM dye-based fluorescence assay relative to control. The class given is cell-based. To be noted: Homo sapiens.
Data set [8] deals with HepG2. The experiment in a line: Inhibition of esterase in human hepG2 cells at 100 uM after 1 hr by calcein-AM dye-based fluorescence assay relative to control. The class given is cell-based.
In data set [9] the target is Acetylcholinesterase (Homo sapiens) (UniProt P22303). The experiment in a line: Inhibition of AChE (unknown origin) assessed as residual activity at 10 uM using acetylthiocholine chloride as substrate measured for 10 mins (reference value: 100 +/- 1.2%).
Chain of Acetylcholinesterase (Homo sapiens) (P22303 whole entry): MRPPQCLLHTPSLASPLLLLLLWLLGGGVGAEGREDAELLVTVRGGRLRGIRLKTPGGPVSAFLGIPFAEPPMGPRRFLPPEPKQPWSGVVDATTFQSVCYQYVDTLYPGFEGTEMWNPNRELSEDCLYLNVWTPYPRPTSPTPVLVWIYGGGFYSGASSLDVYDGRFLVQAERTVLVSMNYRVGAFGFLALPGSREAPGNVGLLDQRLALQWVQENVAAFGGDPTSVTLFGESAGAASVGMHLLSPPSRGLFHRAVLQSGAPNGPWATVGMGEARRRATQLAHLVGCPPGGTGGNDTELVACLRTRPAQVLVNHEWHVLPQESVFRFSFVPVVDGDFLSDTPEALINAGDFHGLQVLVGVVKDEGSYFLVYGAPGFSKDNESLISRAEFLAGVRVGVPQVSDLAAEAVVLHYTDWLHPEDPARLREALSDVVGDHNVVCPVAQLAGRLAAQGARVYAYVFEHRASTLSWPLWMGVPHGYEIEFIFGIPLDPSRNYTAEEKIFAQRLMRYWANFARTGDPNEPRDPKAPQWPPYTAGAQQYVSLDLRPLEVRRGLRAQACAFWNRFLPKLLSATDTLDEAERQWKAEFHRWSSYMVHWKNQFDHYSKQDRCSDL
For data set [10] the target is unchanged. The experiment in a line: Inhibition of AChE (unknown origin) assessed as residual activity at 50 uM using acetylthiocholine chloride as substrate measured for 10 mins (reference value: 100 +/- 1.2%).
For data set [11] the target is unchanged. The experiment in a line: Inhibition of AChE (unknown origin) assessed as residual activity at 100 uM using acetylthiocholine chloride as substrate measured for 10 mins (reference value: 100 +/- 1.2%).
For data set [12] the target is unchanged. The experiment in a line: Inhibition of AChE (unknown origin) using acetylthiocholine chloride as substrate measured for 10 mins.
Data set [13] concerns HepG2. The experiment in a line: Inhibition of HAT in human HepG2 cells assessed as decrease in histone H3 acetylation at Lys27 residues at 100 uM incubated for 48 hrs by Western blot analysis relative to control. It counts as cell-based. (In western blotting, separated proteins are transferred to a membrane and probed.)
The test system of data set [14] is HEK293. The experiment in a line: Inhibition of HAT in HEK293 cells assessed as decrease in histone H3 acetylation at Lys27 residues at 100 uM incubated for 48 hrs by Western blot analysis relative to control. The note with it: Homo sapiens. The class given is cell-based.
Data set [15] concerns HepG2. The experiment in a line: Inhibition of HAT in human HepG2 cells assessed as decrease in histone H3 acetylation at Lys27 residues at 100 uM incubated for 48 hrs in presence of TSA by Western blot analysis. It counts as cell-based.
The test system of data set [16] is HEK293. The experiment in a line: Inhibition of HAT in HEK293 cells assessed as decrease in histone H3 acetylation at Lys27 residues at 100 uM incubated for 48 hrs in presence of TSA by Western blot analysis. It counts as cell-based. To be noted: Homo sapiens.
Data set [17] concerns the target ATP-binding cassette sub-family C member 6 (Homo sapiens, UniProt O95255). The experiment in a line: Inhibition of ABCC6 (unknown origin) expressed in HEK293 cells assessed as increase in doxorubicin efflux at 100 uM after 30 mins by fluorescence assay. The class given is cell-based. The note with it: hek293, 0.5 h.

The source made the active and inactive calls. No cut-off for these calls is given here.

Chain of ATP-binding cassette sub-family C member 6 (O95255 whole entry): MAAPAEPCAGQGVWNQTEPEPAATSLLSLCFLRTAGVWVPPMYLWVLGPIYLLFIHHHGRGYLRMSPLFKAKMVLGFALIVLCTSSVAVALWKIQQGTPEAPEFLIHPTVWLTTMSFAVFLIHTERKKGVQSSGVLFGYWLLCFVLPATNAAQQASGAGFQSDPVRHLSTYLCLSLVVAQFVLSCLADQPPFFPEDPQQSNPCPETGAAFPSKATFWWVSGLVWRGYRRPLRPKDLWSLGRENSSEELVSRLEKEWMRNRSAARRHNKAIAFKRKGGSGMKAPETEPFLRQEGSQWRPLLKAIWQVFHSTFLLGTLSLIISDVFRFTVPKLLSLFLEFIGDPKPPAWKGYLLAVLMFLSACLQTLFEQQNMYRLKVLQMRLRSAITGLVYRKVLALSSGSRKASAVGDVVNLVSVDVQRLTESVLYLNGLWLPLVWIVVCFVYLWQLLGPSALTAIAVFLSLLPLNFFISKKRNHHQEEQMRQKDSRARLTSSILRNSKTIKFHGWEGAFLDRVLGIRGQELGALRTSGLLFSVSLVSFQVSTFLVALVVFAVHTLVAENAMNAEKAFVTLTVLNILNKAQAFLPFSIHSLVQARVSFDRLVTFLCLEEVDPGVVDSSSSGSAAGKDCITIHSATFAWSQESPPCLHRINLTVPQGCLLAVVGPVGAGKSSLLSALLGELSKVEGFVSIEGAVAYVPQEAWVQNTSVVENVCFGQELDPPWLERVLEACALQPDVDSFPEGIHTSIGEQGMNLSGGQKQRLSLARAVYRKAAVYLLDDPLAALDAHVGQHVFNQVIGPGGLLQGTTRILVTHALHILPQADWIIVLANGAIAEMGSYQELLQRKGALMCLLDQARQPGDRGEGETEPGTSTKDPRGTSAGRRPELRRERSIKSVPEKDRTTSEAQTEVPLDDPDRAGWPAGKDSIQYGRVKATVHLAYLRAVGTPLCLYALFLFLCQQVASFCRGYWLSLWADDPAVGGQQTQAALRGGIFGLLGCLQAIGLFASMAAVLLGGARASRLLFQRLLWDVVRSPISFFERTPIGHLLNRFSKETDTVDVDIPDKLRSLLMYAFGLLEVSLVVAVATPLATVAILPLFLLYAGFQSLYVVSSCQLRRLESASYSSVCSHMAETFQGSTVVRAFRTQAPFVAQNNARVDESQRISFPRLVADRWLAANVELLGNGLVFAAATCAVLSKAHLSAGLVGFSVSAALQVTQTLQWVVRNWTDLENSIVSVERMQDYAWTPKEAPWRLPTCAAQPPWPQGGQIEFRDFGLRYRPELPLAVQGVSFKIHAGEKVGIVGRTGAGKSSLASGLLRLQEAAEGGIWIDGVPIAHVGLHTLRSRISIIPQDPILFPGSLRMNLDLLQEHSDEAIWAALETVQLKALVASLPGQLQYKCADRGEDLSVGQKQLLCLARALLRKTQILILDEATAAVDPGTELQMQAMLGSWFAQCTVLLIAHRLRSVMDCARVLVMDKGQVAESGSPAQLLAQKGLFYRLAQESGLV

The inhibition is the relative decrease from the control value, in per cent. As to `CC/C=C\COC1(c2ccc(Cl)cc2)SC=C(C)n2c1noc2=O` (configuration not stated), the Activity entry in data set [1] is given as “Non-Toxic”; in data set [2], “Non-Toxic”; in [3], “Non-Toxic”; in [4], “Non-Toxic”; in data set [5], 50%; in data set [6], 50%. The Activity in data set [9] was 80%; in data set [10], 61%; in [11], 56%. The inhibition is 60% in data set [7]; 50% in [8]; “Dose-dependent effect” in [12]; 56% in data set [13]; 80% in data set [14]. In addition, the inhibition result in data set [15] and in data set [16] was “Active” in each case. Besides, the “inhibition (INH)” value in data set [17] is reported as “Active”.
